Experimental data reported in ChEMBL document CHEMBL2010674, “Structure based design of iminohydantoin BACE1 inhibitors: identification of an orally available, centrally active BACE1 inhibitor” (Bioorg Med Chem Lett, 2012).
pIC50, pKi: −log10 of the molar value.

What was measured:
Beta-secretase 2 = target: T1, Beta-secretase 2 (Homo sapiens, UniProt Q9Y5Z0)
T1 sequence (Q9Y5Z0 whole entry): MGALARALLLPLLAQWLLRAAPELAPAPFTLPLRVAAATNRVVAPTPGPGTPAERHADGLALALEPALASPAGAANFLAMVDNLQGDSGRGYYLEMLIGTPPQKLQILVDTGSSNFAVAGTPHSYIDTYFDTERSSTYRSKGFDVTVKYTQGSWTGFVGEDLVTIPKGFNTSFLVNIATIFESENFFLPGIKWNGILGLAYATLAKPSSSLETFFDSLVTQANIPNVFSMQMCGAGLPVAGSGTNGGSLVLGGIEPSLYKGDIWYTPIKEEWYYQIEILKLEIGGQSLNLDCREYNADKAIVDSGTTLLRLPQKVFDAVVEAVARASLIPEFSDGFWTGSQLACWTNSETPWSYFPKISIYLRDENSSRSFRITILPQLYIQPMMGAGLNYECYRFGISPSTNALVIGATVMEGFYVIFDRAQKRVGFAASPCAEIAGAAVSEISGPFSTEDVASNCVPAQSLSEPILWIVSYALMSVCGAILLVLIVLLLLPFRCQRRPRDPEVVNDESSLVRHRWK

Beta-secretase 1 [1] = target: T2, Beta-secretase 1 (Homo sapiens, UniProt P56817)
Description: Inhibition of BACE1 in HEK293 cells expressing APP swedish and london mutant assessed as decrease of amyloid-beta40 level after 4 hrs by electrochemiluminescence-based sandwich ELISA

Beta-secretase 1 [2] = target: T2, Beta-secretase 1; remark: listed apart in the source
[3] = AUC (0 to 6 hrs) in rat at 10 mg/kg, po; assay type: ADME, organism-based; design: time < 6 hr, dose 10 mg/kg, route oral; settings: plasma
[4] = Ratio of drug level in brain to plasma in rat at 10 mg/kg, po; assay type: ADME, organism-based; design: dose 10 mg/kg, route oral; settings: read-out: BPR
Rattus norvegicus [5] = assay: Antialzheimer activity in Sprague-Dawley rat assessed as reduction in amyloid beta40 level in CSF at 30 mg/kg, po after 3 hrs relative to vehicle treated control; assay type: functional; design: scale not given: the % may be the effect or the level left
Plasma = assay: Plasma concentration in Sprague-Dawley rat at 30 mg/kg, po; assay type: ADME, organism-based; design: dose 30 mg/kg, route oral; settings: in vivo
[6] = Ratio of drug level in brain to plasma in Sprague-Dawley rat at 30 mg/kg, po; assay type: ADME, organism-based; design: dose 30 mg/kg, route oral; settings: read-out: BPR
Rattus norvegicus [7] = assay: Antialzheimer activity in Sprague-Dawley rat assessed as reduction in amyloid beta40 level in plasma at 30 mg/kg, po after 3 hrs relative to vehicle treated control; assay type: functional; design: scale not given: the % may be the effect or the level left

T2 sequence (P56817 whole entry): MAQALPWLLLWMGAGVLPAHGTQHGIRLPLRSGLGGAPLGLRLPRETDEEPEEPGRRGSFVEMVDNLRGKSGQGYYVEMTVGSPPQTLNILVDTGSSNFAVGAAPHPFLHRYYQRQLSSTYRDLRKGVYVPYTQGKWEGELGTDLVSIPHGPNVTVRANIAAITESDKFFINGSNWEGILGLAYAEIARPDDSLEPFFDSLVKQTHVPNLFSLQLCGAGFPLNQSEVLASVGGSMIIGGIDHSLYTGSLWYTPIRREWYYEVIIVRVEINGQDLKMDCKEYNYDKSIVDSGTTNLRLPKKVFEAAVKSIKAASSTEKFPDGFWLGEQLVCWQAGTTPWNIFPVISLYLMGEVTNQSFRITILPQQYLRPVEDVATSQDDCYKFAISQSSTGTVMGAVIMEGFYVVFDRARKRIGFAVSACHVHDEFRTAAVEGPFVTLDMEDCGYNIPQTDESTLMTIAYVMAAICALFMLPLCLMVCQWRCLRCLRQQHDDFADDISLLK

Compound	pIC50 (Beta-secretase 1 [1])	pKi (Beta-secretase 1 [2])	also measured
Cc1cncc(-c2cccc(C3(C4CC4)NC(=N)N(C)C3=O)c2)c1 (configuration not stated)	6.19	6.60	pKi (Beta-secretase 2): 7.17
CN1C(=N)N[C@@](c2cccc(-c3cncc(Cl)c3)c2)(C2CC2)C1=O	–	–	AUC(0-t) at 6 h [3]: 3.1 µM·h
CN1C(=N)NC(C)(c2cccc(-c3cccc(Cl)c3)c2)C1=O (configuration not stated)	5.32	6.14	–
CCC1(c2cccc(-c3cccc(Cl)c3)c2)NC(=N)N(C)C1=O (configuration not stated)	5.28	6.35	–
CC(C)C1(c2cccc(-c3cccc(Cl)c3)c2)NC(=N)N(C)C1=O (configuration not stated)	5.34	6.49	–
CN1C(=N)NC(c2cccc(-c3cccc(Cl)c3)c2)(C2CC2)C1=O (configuration not stated)	5.72	7.33	–
CN1C(=N)NC(c2cccc(-c3cccc(Cl)c3)c2)(C2CCC2)C1=O (configuration not stated)	5.55	6.96	–
CN1C(=N)NC(c2cccc(-c3cccc(Cl)c3)c2)(C2CCCC2)C1=O (configuration not stated)	5.16	6.33	–
CN1C(=N)NC(c2cccc(-c3cccc(Cl)c3)c2)(c2ccccn2)C1=O (configuration not stated)	5.23	6.07	–
CN1C(=N)NC(c2cccnc2)(c2cccc(-c3cccc(Cl)c3)c2)C1=O (configuration not stated)	5.36	6.77	–
CN1C(=N)NC(c2ccncc2)(c2cccc(-c3cccc(Cl)c3)c2)C1=O (configuration not stated)	–	< 5.00	–
CN1C(=N)NC(c2cncnc2)(c2cccc(-c3cccc(Cl)c3)c2)C1=O (configuration not stated)	4.68	6.08	–
CN1C(=N)NC(c2cccc(-c3cc(Cl)cc(Cl)c3)c2)(C2CC2)C1=O (configuration not stated)	5.62	7.52	–
COc1cccc(-c2cccc(C3(C4CC4)NC(=N)N(C)C3=O)c2)c1 (configuration not stated)	–	–	pKi (Beta-secretase 2): 8.11
CN1C(=N)NC(c2cccc(-c3cccc(C#N)c3)c2)(C2CC2)C1=O (configuration not stated)	6.03	6.89	pKi (Beta-secretase 2): 7.52
CN1C(=N)NC(c2cccc(-c3cccnc3)c2)(C2CC2)C1=O (configuration not stated)	6.06	6.57	pKi (Beta-secretase 2): 6.44
COc1cncc(-c2cccc(C3(C4CC4)NC(=N)N(C)C3=O)c2)c1 (configuration not stated)	6.41	7.00	pKi (Beta-secretase 2): 7.96

Compound	pIC50 (Beta-secretase 1 [1])	pKi (Beta-secretase 1 [2])	also measured
CN1C(=N)NC(c2cccc(-c3cncc(C#N)c3)c2)(C2CC2)C1=O (configuration not stated)	6.21	6.57	pKi (Beta-secretase 2): 6.77
CN1C(=N)NC(c2cccc(-c3cncc(F)c3)c2)(C2CC2)C1=O (configuration not stated)	6.10	6.80	pKi (Beta-secretase 2): 6.86
CC#Cc1cncc(-c2cccc([C@@]3(C4CC4)NC(=N)N(C)C3=O)c2)c1	7.09	8.27	AUC(0-t) at 6 h [3]: 17.9 µM·h; Kp [4]: 0.3; Activity (Rattus norvegicus [5]): 54%; concentration (Plasma): 4.2 µM; Kp [6]: 0.2; Activity (Rattus norvegicus [7]): 85%
CN1C(=N)NC(c2ccccc2)(c2cccc(-c3ccccc3)c2)C1=O (racemic)	–	5.48	–
COc1ccc(-c2cccc(C3(c4ccccc4)NC(=N)N(C)C3=O)c2)cc1 (racemic)	–	5.42	–
CCOc1cccc(-c2cccc(C3(c4ccccc4)N=C(N)N(C)C3=O)c2)c1 (racemic)	–	6.34	–
CN1C(=N)NC(c2ccccc2)(c2cccc(F)c2)C1=O (racemic)	–	6.14	–
Cc1cccc(C2(c3ccccc3)N=C(N)N(C)C2=O)c1 (racemic)	–	6.26	–
CN1C(=O)C(c2ccccc2)(c2cccc(C#N)c2)N=C1N (racemic)	–	6.43	–
CN1C(=O)C(c2ccccc2)(c2cccc(-c3ccncc3)c2)N=C1N (racemic)	–	5.42	–
CN1C(=N)NC(c2ccccc2)(c2cccc(-c3cnccn3)c2)C1=O (racemic)	–	6.51	–
Cc1cncc(-c2cccc(C3(c4ccccc4)NC(=N)N(C)C3=O)c2)c1 (racemic)	–	6.37	–
CN1C(=N)NC(c2ccccc2)(c2cccc(-c3cncc(C#N)c3)c2)C1=O (racemic)	–	6.33	–
CN1C(=N)NC(c2ccccc2)(c2cccc(-c3cncc(F)c3)c2)C1=O (racemic)	–	6.54	–
CN1C(=N)NC(c2ccccc2)(c2cccc(-c3cncc(Cl)c3)c2)C1=O (racemic)	–	7.05	–
CN1C(=O)C(c2ccccc2)(c2cccc(Cl)c2)N=C1N (racemic)	–	6.52	–
